Consider two compounds from article PMC11261597, “Three-Step Enzymatic Remodeling of Chitin into Bioactive Chitooligomers” (Journal of Agricultural and Food Chemistry, 2024).

Molecules are shown by their SMILES.

The experiment deals with T1, BsPdaC (Bacillus subtilis, UniProt O34798).
T1 construct: gene pdaC
T1 sequence (O34798 278-467 limits assumed): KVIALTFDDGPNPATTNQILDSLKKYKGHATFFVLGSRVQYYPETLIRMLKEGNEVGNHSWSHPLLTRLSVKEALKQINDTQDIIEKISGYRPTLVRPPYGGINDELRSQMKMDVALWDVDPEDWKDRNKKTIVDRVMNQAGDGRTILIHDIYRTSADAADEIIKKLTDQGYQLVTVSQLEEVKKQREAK
Description: deacetylation followed by HPLC-MS. The format is biochemical. Conditions: 2 mM substrate, 4 μM enzyme, PBS pH 7.5, 37 °C.

Turning to `CC(=O)N[C@H]1[C@H](O[C@H]2[C@H](O)[C@@H](NC(C)=O)C(O)O[C@@H]2CO)O[C@H](CO)[C@@H](O[C@@H]2O[C@H](CO)[C@@H](O[C@@H]3O[C@H](CO)[C@@H](O)[C@H](O)[C@H]3NC(C)=O)[C@H](O)[C@H]2NC(C)=O)[C@@H]1O` (some centres unmarked) [CH4, N,N′,N″,N‴-tetraacetylchitotetraose], the “deacetylation followed by HPLC-MS” value is “BsPdaC exhibited an effective deacetylation of standard CH4 and CH5 substrates”. For the compound `CC(=O)N[C@H]1[C@H](O[C@H]2[C@H](O)[C@@H](NC(C)=O)[C@H](O[C@H]3[C@H](O)[C@@H](NC(C)=O)C(O)O[C@@H]3CO)O[C@@H]2CO)O[C@H](CO)[C@@H](O[C@@H]2O[C@H](CO)[C@@H](O[C@@H]3O[C@H](CO)[C@@H](O)[C@H](O)[C@H]3NC(C)=O)[C@H](O)[C@H]2NC(C)=O)[C@@H]1O` (some centres unmarked) [CH5], the “deacetylation followed by HPLC-MS” value was “BsPdaC exhibited an effective deacetylation of standard CH4 and CH5 substrates”.
